{"source": "patent US8450283B2", "about": "“Composition for treating cancer and use thereof” (National Taiwan University, priority 2008, dated 2013)", "key": {"[1]": {"test_system": "CL1-5 cells", "assay": "Cytotoxicity / cell viability of peptide-treated cancer cells", "type": "cell-based, human", "details": "peptide treatment of cancer cells"}, "[2]": {"target": "T1, NRP1 (Homo sapiens, UniProt O14786)", "T1 construct": "Recombinant soluble NRP1 (sNRP1) protein containing His6 and c-Myc domain tags was synthesized in NIH-3T3 murine fibroblast cells; His6; c-Myc; made in house; host or cells: NIH-3T3 fibroblast cells, secreted into medium, purified on Ni-NTA", "T1 sequence (O14786 22-644 isoform O14786-2 limits assumed)": "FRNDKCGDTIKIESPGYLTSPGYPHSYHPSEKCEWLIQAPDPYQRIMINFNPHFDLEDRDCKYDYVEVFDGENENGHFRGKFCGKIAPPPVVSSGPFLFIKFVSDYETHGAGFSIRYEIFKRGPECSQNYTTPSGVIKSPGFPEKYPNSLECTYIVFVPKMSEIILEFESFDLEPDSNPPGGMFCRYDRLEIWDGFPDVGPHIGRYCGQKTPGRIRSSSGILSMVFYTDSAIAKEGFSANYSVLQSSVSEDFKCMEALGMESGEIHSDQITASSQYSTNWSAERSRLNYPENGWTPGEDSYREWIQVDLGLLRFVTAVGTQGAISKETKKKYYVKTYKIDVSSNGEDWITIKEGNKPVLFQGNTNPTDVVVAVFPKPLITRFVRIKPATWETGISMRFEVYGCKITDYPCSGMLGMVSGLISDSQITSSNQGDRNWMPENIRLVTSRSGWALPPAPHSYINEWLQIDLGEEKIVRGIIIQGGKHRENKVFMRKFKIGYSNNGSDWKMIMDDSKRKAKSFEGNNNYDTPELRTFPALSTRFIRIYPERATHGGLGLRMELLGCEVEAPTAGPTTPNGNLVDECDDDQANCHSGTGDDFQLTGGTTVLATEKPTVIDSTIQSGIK", "assay": "Surface plasmon resonance (Biacore) binding of selected peptides to NRP1", "details": "25° C., immobilized recombinant NRP1, read-out: ka", "experimental": "(§1) The binding kinetics of selected peptides with NRP1 were tested using the surface plasmon resonance based measuring system (Biacore AB) at 25° C. Recombinant NRP1 was immobilized on CM5 sensor chips by amine coupling at 400 response units using the amine coupling kit (Biacore) according to the manufacturer's instructions. Binding was detected in resonance units after injecting various concentrations of peptide at a flow rate of 30 μL/min. Sensograms of association and dissociation were recorded and analyzed using BIAevaluation software 3.0 (Biacore AB)."}, "[3]": {"test_system": "NRP1", "assay": "NRP1 expression after siRNA transfection (Western blot)", "type": "cell-based, human", "details": "CL1-5 cells transfected with siRNA"}, "[4]": {"test_system": "CL1-5 cells", "assay": "In vitro invasion assay (modified Boyden chamber, Matrigel)", "type": "cell-based, human", "details": "48 h, Matrigel-coated Transwell", "experimental": "A modified Boyden chamber system was used to investigate the invasive capability of CL cells treated with selected peptides, sNRP1, and siRNA of NRP1 (Chu Y W, et al., Am J Respir Cell Mol Biol 1997, 17: 353-360). The polycarbonate membranes (containing 8-μm pores) of Transwell inserts were coated with Matrigel. The cells were suspended in RPMI 1640 containing 10% NuSerum (Life Science), and 2.5×10^4 cells were placed into the upper well of each chamber. After incubation for 48 h at 37° C., the Transwell membrane was fixed with methanol for 10 min at room temperature and stained with a 50 μg/mL solution of propidium iodide (Sigma) for 30 min at room temperature. The number of cells in each membrane was counted under a microscope at a magnification of ×50 using the Analytical Imaging Station software package (Imaging Research Inc.). Each sample was assayed in triplicate."}, "[5]": {"test_system": "PI3K", "assay": "Phosphoinositide-3-kinase activity assay in CL1-5 cells", "type": "cell-based, human", "details": "48 h after transfection, 1.3 nmol/L VEGF165, vs nonsilencing siRNA", "experimental": "Phosphoinositide-3-kinase (PI3K) activities were assayed as described previously (Lin M T, et al., J Biol Chem 2001, 276: 48997-49002) with some modifications. In brief, CL1-5 cell extracts were incubated with the antiphosphotyrosine antibody and then precipitated with protein A-Sepharose. The immunocomplexes were preincubated with phosphatidylinositol-4,5-P2 (Sigma), and the kinase reaction was initiated by adding 10 μCi of [γ-^32P]ATP in reaction buffer for 15 min. Phospholipids were separated by TLC and visualized by phosphorimaging."}, "[6]": {"test_system": "CL1-5 cells", "assay": "Scratch wound healing migration assay", "type": "cell-based, human", "details": "24 h after scratch, 24 nmol/L siRNA", "experimental": "Cell migration was measured by the in vitro scratch wound healing assay (Tamura M, et al., Science 1998, 280: 1614-1617). CL1-5 cells were transfected with 24 nmol/L siRNA-1 in 12-well plates. Twenty-four hours after transfection, cells were scratched with a yellow pipette tip and photographed 18, 21, and 24 h after the scratch. The cell migration at 0, 18, 21, and 24 h was evaluated by counting cells that had migrated from the wound edge."}, "[7]": {"test_system": "VEGFR2", "assay": "VEGF165-induced VEGFR2 phosphorylation in CL1-5 cells (immunoprecipitation / Western blot)", "type": "cell-based, human", "experimental": "VEGFR2 phosphorylation was assessed as previously described (Soker S, et al., J Cell Biochem 2002, 85:357-368). Briefly, CL1-5 cells were treated with a mixture of hVEGF and sNRP1 for 30 min on ice and then at 37° C. for 7 min. Cell lysates were immunoprecipitated with anti-VEGFR2 antibodies. For Western blotting, the membranes were first probed with anti-Flk-1 antibodies and then reprobed with anti-phospho-VEGFR2 antibodies 2/3(pc460) after being stripped with deblotting buffer. In the antiangiogenesis assay, HUVECs were pretreated with peptides for 10 min followed by treatment with VEGF for 5 min, and the cells were then immediately extracted with lysis buffer. Activation of Flk-1/KDR was determined by immunoblotting cell extracts with anti-Flk-1 antibodies and then reprobing with anti-phospho-VEGFR2 antibodies (pTyr^1214) after the membranes had been stripped with deblotting buffer."}, "[8]": {"target": "T2, human VEGF165 (Homo sapiens, UniProt P15692)", "T2 construct": "purchased PeproTech, Inc", "T2 sequence (P15692 27-191 isoform P15692-4)": "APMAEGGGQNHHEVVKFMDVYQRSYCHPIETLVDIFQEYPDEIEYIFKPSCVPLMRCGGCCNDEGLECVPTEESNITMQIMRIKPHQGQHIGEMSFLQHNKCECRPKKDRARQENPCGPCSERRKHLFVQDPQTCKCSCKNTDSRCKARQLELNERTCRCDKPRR", "assay": "Surface plasmon resonance binding of recombinant sNRP1 to VEGF165", "details": "read-out: average dissociation constant (KD) of human VEGF165 binding to sNRP1", "experimental": "as §1"}, "[9]": {"test_system": "CL1-5 cells", "assay": "Filamentous actin staining (rhodamine-phalloidin)", "type": "cell-based, human", "experimental": "For filamentous actin (F-actin) staining, cells were seeded on coverslips in 24-well plates and allowed to attach for 24 h in medium containing 10% FCS. The cells were fixed, washed, and permeabilized in 0.1% Triton-X. The cells were incubated for 30 min with 5 units/mL of rhodamine-conjugated phalloidin (Molecular Probe) and mounted using Fluor Save reagent (Calbiochem). The slides were analyzed using a Zeiss Axioplan 2 microscope."}, "[10]": {"test_system": "Akt", "assay": "VEGF165-induced Akt phosphorylation in CL1-5 cells (Western blot)", "type": "cell-based, human", "details": "1.3 nmol/L VEGF165, 10 nmol/L sNRP1"}}, "note": "Entries after “also recorded” stand apart in the source; their conditions may differ. Where a SMILES comes first, the peptide text is derived from it. Bridges are numbered along the chain shown (N, C = ends)."}
{"compound": "CSCC[C@@H]1NC(=O)[C@H](CCCNC(=N)N)NC(=O)[C@@H]2CCCN2C(=O)[C@H](CCCNC(=N)N)NC(=O)[C@H](CCCNC(=N)N)NC(=O)[C@@H](N)CSSC[C@@H](C(=O)O)NC(=O)[C@H]([C@@H](C)O)NC(=O)[C@H](CC(C)C)NC1=O", "note": "[DG1, CRRPRMLTC] (H-CRRPRMLTC-OH; disulfide 1-9; N-terminus and C-terminus assumed)", "values": [{"measurement": "cytotoxicity / cell viability", "setting": "[1]", "value": "without affecting cell viability; also recorded: not cytotoxic"}, {"measurement": "kon", "setting": "[2]", "value": 1230, "unit": "M⁻¹ s⁻¹"}]}
{"compound": "CC[C@H](C)[C@@H]1NC(=O)[C@H](CCCNC(=N)N)NC(=O)[C@H](CCCNC(=N)N)NC(=O)[C@H](CO)NC(=O)[C@H](CCCNC(=N)N)NC(=O)[C@@H](N)CSSC[C@@H](C(=O)O)NC(=O)[C@H](CC(C)C)NC(=O)[C@H](CCCNC(=N)N)NC1=O", "note": "[DG2, CRSRRIRLC] (H-CRSRRIRLC-OH; disulfide 1-9; N-terminus and C-terminus assumed)", "values": [{"measurement": "cytotoxicity / cell viability", "setting": "[1]", "value": "not cytotoxic"}, {"measurement": "kon", "setting": "[2]", "value": "123 ± 24", "unit": "M⁻¹ s⁻¹"}]}
{"compound": "AACACCTAGTGGAGTGATAAA [siRNA-1]", "values": [{"measurement": "NRP1 expression", "setting": "[3]", "value": "Significant suppression"}, {"measurement": "invasion ability of CL1-5 cells (in words)", "setting": "[4]", "value": "decreased the invasion ability of CL1-5 cells in a dose-dependent manner"}, {"measurement": "VEGF165-induced PI3K activation", "setting": "[5]", "value": "decreased"}, {"measurement": "migration of CL1-5 cells", "setting": "[6]", "value": "significantly inhibited"}]}
{"compound": "AACAGCCTTGAATGCACTTAT [siRNA-2]", "values": [{"measurement": "NRP1 expression", "setting": "[3]", "value": "Significant suppression"}, {"measurement": "invasion ability of CL1-5 cells (in words)", "setting": "[4]", "value": "decreased the invasion ability of CL1-5 cells in a dose-dependent manner"}]}
{"compound": "sNRP1: Recombinant soluble NRP1 protein containing His6 and c-Myc domain tags, synthesized in NIH-3T3 cells", "values": [{"measurement": "VEGF165-induced VEGFR2 activation", "setting": "[7]; VEGF165 plus sNRP1", "value": "decreased by sNRP1 in a dose-dependent manner"}, {"measurement": "VEGF165-induced VEGFR2 activation", "setting": "[7]; high concentrations of sNRP1", "value": "totally blocked"}, {"measurement": "Kd", "setting": "[8]", "value": 125, "unit": "nM"}, {"measurement": "invasion ability of CL1-5 cells (in words)", "setting": "[4]", "value": "dose-dependent decrease"}, {"measurement": "F-actin polymerization and filopodia formation", "setting": "[9]", "value": "inhibited F-actin polymerization and filopodia formation"}, {"measurement": "VEGF165-induced phosphorylation of Akt at Ser473", "setting": "[10]", "value": "decreased to less than one third"}]}
